Source: patent US20130116231A1, “TYROSINE KINASE INHIBITORS” (Merck Sharp & Dohme Corp., priority 2010, published 2013)

Target: T1, human c-Met (Homo sapiens, UniProt P08581)
T1 construct: Recombinant GST-tagged cytosolic domains of human c-Met; 6xHis; made in house; host or cells: Sf9 or Sf21 insect cells (baculovirus)
Assay: in vitro kinase assay (homogeneous time-resolved tyrosine kinase assay, METKA)
Format: biochemical
Details: recombinant GST-tagged c-Met cytosolic domain, HTRF, 50 μM MgATP; read-out: Biological Activity (METKA IC50) Activity Code
Outline: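 HTRF assay with GST-tagged cytosolic c-Met domain (0.2 nM), 0.5 μM biotinylated peptide, 50 μM MgATP, pH 7.4, 5% DMSO, 80 min at room temperature; Eu-anti-pTyr/SA-APC detection, IC50 by 4-parameter fit. Other kinases identical except enzyme level: mouse c-Met 0.2, Ron 2.5, KDR 8, IGFR 0.24, EGFR 0.24, FGFR 0.14, Mer 16, TrkA 8, Tie2 8 nM.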

T1 sequence (P08581 956-1390 limits assumed): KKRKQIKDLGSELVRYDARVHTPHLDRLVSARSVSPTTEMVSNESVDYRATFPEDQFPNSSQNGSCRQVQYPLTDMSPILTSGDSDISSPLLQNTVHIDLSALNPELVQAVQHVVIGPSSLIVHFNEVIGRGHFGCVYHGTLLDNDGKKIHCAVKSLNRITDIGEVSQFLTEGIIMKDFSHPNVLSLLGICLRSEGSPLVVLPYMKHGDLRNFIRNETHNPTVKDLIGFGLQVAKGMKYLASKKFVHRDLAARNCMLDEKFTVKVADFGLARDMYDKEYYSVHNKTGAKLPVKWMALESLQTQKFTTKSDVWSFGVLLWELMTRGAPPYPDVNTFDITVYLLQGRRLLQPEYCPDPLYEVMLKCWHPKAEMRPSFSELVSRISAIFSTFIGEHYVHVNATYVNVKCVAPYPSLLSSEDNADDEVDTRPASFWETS

| SMILES | IC50 |
| --- | --- |
| COCCOc1cnc2ccc(OCc3nn(-c4cnn(C)c4)ccc3=O)cc2n1 [Example 106, 3-({[3-(2-methoxyethoxy)quinoxalin-6-yl]oxy}methyl)-1-(1-methyl-1H-pyrazol-4-yl)pyridazin-4(1H)-one] | < 100 nM |
| Cn1cc(-n2ccc(=O)c(COc3ccc4ncc5c(c4c3)OCCO5)n2)cn1 [Example 107, 3-[(2,3-dihydro[1,4]dioxino[2,3-c]quinolin-9-yloxy)methyl]-1-(1-methyl-1H-pyrazol-4-yl)pyridazin-4(1H)-one] | < 100 nM |
| CN(Cc1nn(-c2cnn(C)c2)ccc1=O)c1ccc2ncccc2c1 [Example 108, 1-(1-Methyl-1H-pyrazol-4-yl)-3-{[methyl(quinolin-6-yl)amino]methyl}pyridazin-4(1H)-one] | < 100 nM |
| Cn1cc(-n2ccc(=O)c(COc3ccc4ncc(C(=O)N5CCOCC5)cc4c3)n2)cn1 [Example 109, 1-(1-methyl-1H-pyrazol-4-yl)-3-({[3-(morpholin-4-ylcarbonyl)quinolin-6-yl]oxy}methyl)pyridazin-4(1H)-one] | 1000 to 3000 nM |
| Cn1cc(-n2ccc(=O)c(COc3ccc4ncc(NC(=O)OC(C)(C)C)cc4c3)n2)cn1 [Example 110, tert-butyl (6-{[1-(1-methyl-1H-pyrazol-4-yl)-4-oxo-1,4-dihydropyridazin-3-yl]methoxy}quinolin-3-yl)carbamate] | < 100 nM |
| Cn1cc(-n2ccc(=O)c(COc3ccc4ncc(NC(=O)Nc5cnc6ccc(OCc7nn(-c8cnn(C)c8)ccc7=O)cc6c5)cc4c3)n2)cn1 [Example 111, 1,3-bis(6-{[1-(1-methyl-1H-pyrazol-4-yl)-4-oxo-1,4-dihydropyridazin-3-yl]methoxy}quinolin-3-yl)urea] | < 100 nM |
| Cn1cc(-n2ccc(=O)c(COc3ccc4ncc(N)cc4c3)n2)cn1 [Example 112, 3-{[(3-Aminoquinolin-6-yl)oxy]methyl}-1-(1-methyl-1H-pyrazol-4-yl)pyridazin-4(1H)-one] | < 100 nM |
| Cn1cc(-n2ccc(=O)c(COc3ccc(N)cc3)n2)cn1 [Example 115, 3-((4-aminophenoxy)methyl)-1-(1-methyl-1H-pyrazol-4-yl)pyridazin-4(1H)-one] | 100 to 1000 nM |
| Cn1cc(-n2ccc(=O)c(COc3ccc(NCCCCO)cc3)n2)cn1 [Example 116, 3-((4-(4-hydroxybutylamino)phenoxy)methyl)-1-(1-methyl-1H-pyrazol-4-yl)pyridazin-4(1H)-one] | 1000 to 3000 nM |
| Cn1cc(-n2ccc(=O)c(CCc3ccc(N)cc3)n2)cn1 [Example 117, 3-[2-(4-aminophenyl)ethyl]-1-(1-methyl-1H-pyrazol-4-yl)pyridazin-4(1H)-one] | 1000 to 3000 nM |
| Cn1cc(-n2ccc(=O)c(CCc3ccc(NCCCCO)cc3)n2)cn1 [Example 118, 3-(2-{4-[(4-hydroxybutyl)amino]phenyl}ethyl)-1-(1-methyl-1H-pyrazol-4-yl)pyridazin-4(1H)-one] | 100 to 1000 nM |
| COCCOC(=O)Nc1ccc(OCc2nn(-c3cnn(C)c3)ccc2=O)cc1 [Example 119, 2-methoxyethyl (4-{[1-(1-methyl-1H-pyrazol-4-yl)-4-oxo-1,4-dihydropyridazin-3-yl]methoxy}phenyl)carbamate] | 1000 to 3000 nM |
| COCCOC(=O)Nc1ccc(CCc2nn(-c3cnn(C)c3)ccc2=O)cc1 [Example 120, 2-methoxyethyl (4-{2-[1-(1-methyl-1H-pyrazol-4-yl)-4-oxo-1,4-dihydropyridazin-3-yl]ethyl}phenyl)carbamate] | 1000 to 3000 nM |
| CCOC(=O)Nc1ccc(CCc2nn(-c3cnn(C)c3)ccc2=O)cc1 [Example 121, ethyl (4-{2-[1-(1-methyl-1H-pyrazol-4-yl)-4-oxo-1,4-dihydropyridazin-3-yl]ethyl}phenyl)carbamate] | 1000 to 3000 nM |
| CCOC(=O)Nc1ccc(OCc2nn(-c3cnn(C)c3)ccc2=O)cc1 [Example 122, ethyl (4-{[1-(1-methyl-1H-pyrazol-4-yl)-4-oxo-1,4-dihydropyridazin-3-yl]methoxy}phenyl)carbamate] | 100 to 1000 nM |
| CC(C)COC(=O)Nc1ccc(OCc2nn(-c3cnn(C)c3)ccc2=O)cc1 [Example 123, 2-methylpropyl (4-{[1-(1-methyl-1H-pyrazol-4-yl)-4-oxo-1,4-dihydropyridazin-3-yl]methoxy}phenyl)carbamate] | 1000 to 3000 nM |
| C=C(Cc1nn(-c2cnn(C)c2)ccc1=O)c1ccc2ncccc2c1 [Example 124, 1-(1-Methyl-1H-pyrazol-4-yl)-3-(2-quinolin-6-ylprop-2-en-1-yl)pyridazin-4(1H)-one] | 100 to 1000 nM |
| Cn1cc(-n2ccc(=O)c(OCc3ccc4ncccc4c3)n2)cn1 [Example 127, 1-(1-Methyl-1H-pyrazol-4-yl)-3-(quinolin-6-ylmethoxy)pyridazin-4(1H)-one] | 1000 to 3000 nM |
| CCn1cc(-n2ccc(=O)c(OCc3ccc4ncccc4c3)n2)cn1 [Example 128, 1-(1-ethyl-1H-pyrazol-4-yl)-3-(quinolin-6-ylmethoxy)pyridazin-4(1H)-one] | 100 to 1000 nM |
| Cn1cc(-c2cnc3ccc(COc4nn(-c5cnn(C)c5)ccc4=O)cc3c2)cn1 [Example 129, 1-(1-methyl-1H-pyrazol-4-yl)-3-{[3-(1-methyl-1H-pyrazol-4-yl)quinolin-6-yl]methoxy}pyridazin-4(1H)-one] | < 100 nM |
| CC(Oc1nn(-c2cnn(C)c2)ccc1=O)c1ccc2ncccc2c1 (centres unmarked) [Example 130, 1-(1-methyl-1H-pyrazol-4-yl)-3-(1-quinolin-6-ylethoxy)pyridazin-4(1H)-one] | 100 to 1000 nM |
| COc1ccnc2ccc(C(C)Oc3nn(-c4cnn(C)c4)ccc3=O)cc12 (centres unmarked) [Example 131, 3-[1-(4-methoxyquinolin-6-yl)ethoxy]-1-(1-methyl-1H-pyrazol-4-yl)pyridazin-4(1H)-one] | 100 to 1000 nM |
| CCn1cc(-n2ccc(=O)c(OC(C)c3ccc4nccc(OC)c4c3)n2)cn1 (centres unmarked) [Example 132, 1-(1-ethyl-1H-pyrazol-4-yl)-3-[1-(4-methoxyquinolin-6-yl)ethoxy]pyridazin-4(1H)-one] | < 100 nM |
| CC(Oc1nn(-c2cnn(C)c2)ccc1=O)c1ccc2ncc(-c3cnn(C)c3)cc2c1 (centres unmarked) [Example 136, 1-(1-methyl-1H-pyrazol-4-yl)-3-{1-[3-(1-methyl-1H-pyrazol-4-yl)quinolin-6-yl]ethoxy}pyridazin-4(1H)-one] | < 100 nM |
| COc1ccnc2ccc(COc3nn(-c4cnn(C)c4)ccc3=O)cc12 [Example 137, 3-[(4-methoxyquinolin-6-yl)methoxy]-1-(1-methyl-1H-pyrazol-4-yl)pyridazin-4(1H)-one] | 1000 to 3000 nM |
| Cn1cc(-n2ccc(=O)c(NCc3ccc4ncccc4c3)n2)cn1 [Example 147, 1-(1-methyl-1H-pyrazol-4-yl)-3-[(quinolin-6-ylmethyl)amino]pyridazin-4(1H)-one] | 100 to 1000 nM |
| CC(Nc1nn(-c2cnn(C)c2)ccc1=O)c1ccc2ncccc2c1 (centres unmarked) [Example 148] | < 100 nM |
| Cn1cc(-n2ccc(=O)c(SCc3ccc4ncccc4c3)n2)cn1 [Example 149, 1-(1-methyl-1H-pyrazol-4-yl)-3-[(quinolin-6-ylmethyl)thio]pyridazin-4(1H)-one] | < 100 nM |
| COC(=O)C(Cc1nn(-c2cnn(C)c2)ccc1=O)c1ccc2ncccc2c1 (centres unmarked) [Example 150, Methyl 3-[1-(1-methyl-1H-pyrazol-4-yl)-4-oxo-1,4-dihydropyridazin-3-yl]-2-(quinolin-6-yl)propanoate] | 1000 to 3000 nM |
